US20160008777A1, “PHARMACEUTICAL COMPOUNDING KIT” (Novotec Consulting Inc., priority 2014, published 2016)
Values joined by “and” are separate entries in the source; they are usually repeats but may differ in a detail not shown here. Equal values may be shown once. Where a name gives a salt, the structure may show the parent alone.

Experiment: Content uniformity of the Example 2 lotion: product from ten individual pumps weighed and assayed for content of each drug
Type: physicochemical
Conditions: for average amount contained in a gram of lotion product: per gram of lotion; for assay values, % of label claim / USP Acceptance Value (AV): ten pump samples; for USP Acceptance Value (AV): limit of 15
Procedure: The content uniformity of the lotion was determined by assaying product from ten individual pumps spaced equally over the content of the bottle. After the pump was primed, product from ten pumps was collected by taking product from approximately every tenth pump. The product from each pump was weighed and assayed for content of each drug.

[1] = Example 2 lotion, average ± standard deviation of ten pump samples
[2] = Example 2 lotion, average ± standard deviation of ten pump samples, label claim 20 mg/g
[3] = Example 2 lotion, individual pump samples No. 1-10, label claim 20 mg/g (2.0%)
[4] = Example 2 lotion, individual pump samples No. 1-10, label claim 20 mg/g (2.0%), dihydrochloride

Compound | average amount contained in lotion product, % w/w (Example 2 lotion) [% w/w] | Mupirocin Wt. (mg/g), Average [1] [mg/g] | Mupirocin % Label Claim, Average [2] [%] | Mupirocin % Label Claim [3] | Mupirocin Wt. [3] | average amount contained in a gram of lotion product (Example 2 lotion) [mg] | assay values, % of label claim (Example 2 lotion) | USP Acceptance Value (AV) (Example 2 lotion) | Levocitirizine dihydrochloride Wt. (mg/g), Average [1] [mg/g] | Levocitirizine dihydrochloride % Label Claim, Average [2] [%] | Levocitirizine dihydrochloride % Label Claim [4] | Levocitirizine dihydrochloride Wt. [4] | Cyanocobalamin Wt. (Example 2 lotion at maximum strength, individual pump samples No. 1-10, label claim 0.7 mg/g (0.07%)) | Cyanocobalamin Wt. (mg/g), Average [1] [mg/g] | Cyanocobalamin % Label Claim, Average (Example 2 lotion, average ± standard deviation of ten pump samples, label claim 0.7 mg/g) [%] | Cyanocobalamin % Label Claim (Example 2 lotion, individual pump samples No. 1-10, label claim 0.7 mg/g (0.07%))
C/C(=C\C(=O)OCCCCCCCCC(=O)O)C[C@@H]1OC[C@H](C[C@@H]2O[C@H]2[C@@H](C)[C@H](C)O)[C@@H](O)[C@H]1O [Mupirocin, mupirocin] | 1.93 | 19.32 ± 0.38 | 96.62 ± 1.90 | 99.60% and 96.00% (2×) and 96.10% and 95.85% and 98.55% and 95.70% and 92.90% and 98.45% and 97.00% | 19.92 mg/g and 19.20 mg/g (2×) and 19.22 mg/g and 19.17 mg/g and 19.71 mg/g and 19.14 mg/g and 18.58 mg/g and 19.69 mg/g and 19.40 mg/g | 19.32 | 90-110% | 6.44 | – | – | – | – | – | – | – | –
O=C(O)COCCN1CCN([C@H](c2ccccc2)c2ccc(Cl)cc2)CC1 [Levocitirizine dihydrochloride, levocetirizine dihydrochloride] | 1.97 | – | – | – | – | 19.76 | 90-110% | 6.66 | 19.76 ± 0.55 | 98.79 ± 2.77 | 97.15% and 96.00% and 102.10% and 103.90% and 99.90% and 101.10% and 96.80% and 95.80% and 96.75% and 97.75% | 19.43 mg/g and 19.32 mg/g and 20.42 mg/g and 20.78 mg/g and 19.98 mg/g and 20.22 mg/g and 19.36 mg/g and 19.16 mg/g and 19.35 mg/g and 19.55 mg/g | – | – | – | –
cyanocobalamin | 0.07 | – | – | – | – | 0.697 | 90-110% | 4.45 | – | – | – | – | 0.723 mg/g and 0.711 mg/g and 0.694 mg/g and 0.696 mg/g (2×) and 0.682 mg/g (2×) and 0.701 mg/g and 0.684 mg/g and 0.699 mg/g | 0.697 ± 0.013 | 99.54 ± 1.86 | 103.29% and 101.57% and 99.14% and 99.43% (2×) and 97.43% (2×) and 100.14% and 97.71% and 99.86%
